Experimental data as given in ChEMBL document CHEMBL5108044, “Discovery of a Novel Potent STAT3 Inhibitor HP590 with Dual p-Tyr705/Ser727 Inhibitory Activity for Gastric Cancer Treatment” (J Med Chem, 2022).
Calls of active or inactive are those of the source. The calls are words filed in the database; no cut-off is given here.

Experiments:
[1] = Toxicity in BALB/c nude mouse xenografted with human MKN-45 cells assessed as liver damage at 25 to 50 mg/kg, po qd administered for 5 weeks by H and E staining based analysis; assay type: organism-based; conditions: in vivo, 840 h, dose 25-50 mg/kg
MKN-45 [2] = assay: Antiproliferative activity against human MKN-45 cells assessed as reduction in cell viability incubated for 72 hrs by MTS assay; assay type: functional, cell-based; conditions: MKN-45, 72 h
[3] = target: T1, Signal transducer and activator of transcription 3 (Homo sapiens, UniProt P40763); assay: Inhibition of STAT3 phosphorylation at Ser727 residue in human MGC-803 cells upto 40 nM incubated upto 24 hrs by Western blotting analysis; assay type: cell-based
[4] = target: T1, Signal transducer and activator of transcription 3; assay: Inhibition of STAT3 phosphorylation at Ser727 residue in human MGC-803 cells incubated upto 24 hrs by Western blotting analysis; assay type: cell-based; conditions: dose <= 40.0 nM, DDE = dose-dependent effect
[5] = target: T1, Signal transducer and activator of transcription 3; assay: Inhibition of STAT3 phosphorylation at Tyr705 residue in human MKN-45 cells incubated upto 24 hrs by Western blotting analysis; assay type: cell-based; conditions: dose <= 40.0 nM, DDE = dose-dependent effect
[6] = target: T1, Signal transducer and activator of transcription 3; assay: Inhibition of STAT3 phosphorylation at Tyr705 residue in human AGS cells incubated upto 24 hrs by Western blotting analysis; assay type: cell-based; conditions: dose <= 40.0 nM, DDE = dose-dependent effect
[7] = target: T1, Signal transducer and activator of transcription 3; assay: Inhibition of STAT3 phosphorylation at Tyr705 residue in human MGC-803 cells incubated upto 24 hrs by Western blotting analysis; assay type: cell-based; conditions: dose <= 40.0 nM, DDE = dose-dependent effect
[8] = target: T1, Signal transducer and activator of transcription 3; assay: Binding affinity to human STAT3 (127 to 722 residues) assessed as dissociation constant by MST assay
[9] = target: Epidermal growth factor receptor (Homo sapiens, UniProt P00533); assay: Inhibition of EGFR (unknown origin)
[10] = target: Proto-oncogene tyrosine-protein kinase Src (Homo sapiens, UniProt P12931); assay: Inhibition of SRC (unknown origin)
[11] = target: T2, Mitogen-activated protein kinase 13 (Homo sapiens, UniProt O15264); assay: Inhibition of p38delta (unknown origin)
T2 sequence (O15264 whole entry): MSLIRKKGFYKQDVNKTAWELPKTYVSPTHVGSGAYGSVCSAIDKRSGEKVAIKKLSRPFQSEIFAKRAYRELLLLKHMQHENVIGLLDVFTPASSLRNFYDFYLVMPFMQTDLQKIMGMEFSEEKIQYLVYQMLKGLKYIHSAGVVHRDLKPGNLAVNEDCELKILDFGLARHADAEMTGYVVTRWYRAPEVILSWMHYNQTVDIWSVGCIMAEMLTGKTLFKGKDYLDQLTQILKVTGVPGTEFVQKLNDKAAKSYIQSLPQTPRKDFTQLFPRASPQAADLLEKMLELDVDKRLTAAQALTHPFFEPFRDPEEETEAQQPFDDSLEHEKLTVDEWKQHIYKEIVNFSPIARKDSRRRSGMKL

[12] = target: T1, Signal transducer and activator of transcription 3; assay: Inhibition of STAT3 in human AGS cells assessed as downregulation of c-Myc expression incubated up to 24 hrs by western blot analysis; assay type: cell-based; conditions: dose <= 40.0 nM, DDE = dose-dependent effect
[13] = target: T1, Signal transducer and activator of transcription 3; assay: Inhibition of STAT3 in human MGC-803 cells assessed as downregulation of c-Myc expression incubated up to 24 hrs by western blot analysis; assay type: cell-based; conditions: dose <= 40.0 nM, DDE = dose-dependent effect
[14] = target: T1, Signal transducer and activator of transcription 3; assay: Inhibition of STAT3 in human MGC-803 cells assessed as downregulation of c-Myc expression up to 40 nM by western blot analysis; assay type: cell-based; conditions: time <= 24.0 hrs, DDE = dose-dependent effect
[15] = target: T1, Signal transducer and activator of transcription 3; assay: Inhibition of IL-6 induced STAT3 phosphorylation at Tyr705 residue in human MKN-45 cells at 40 nM preincubated for 24 hrs followed by IL-6 stimulation and measured after 30 min by Western blotting analysis; assay type: cell-based; conditions: time 24.5 hrs
MKN-45 [16] = assay: Inhibition of mitochondrial respiration in human MKN-45 cells assessed as oxygen consumption rate incubated for 1 hr by Seahorse XF24 extracellular flux analyzer; assay type: functional, cell-based; conditions: dose 1-100 nM, DDE = dose-dependent effect
AGS = assay: Antiproliferative activity against human AGS cells assessed as cell viability incubated for 72 hrs by MTS assay; assay type: functional, cell-based; conditions: dose <= 100.0 nM, DDE = dose-dependent effect
MGC-803 = assay: Inhibition of colony formation in human MGC-803 cells assessed as reduction in number of colonies incubated for 5 to 7 days by crystal violet staining based assay; assay type: functional, cell-based; conditions: dose <= 20.0 nM, time 5-7 day, DDE = dose-dependent effect
[17] = Apparent volume of distribution in ICR mouse plasma at 1 mg/kg, iv measured up to 24 hrs by LC-MS/MS analysis; assay type: ADME, organism-based; conditions: read-out: Vz
MKN-45 [18] = assay: Induction of apoptosis in human MKN-45 cells assessed as necrotic cells 5 nM incubated for 48 hrs by FITC-annexin V/propidium iodide staining based flow cytometry (reference value: 10.3%); assay type: functional
MKN-45 [19] = assay: Induction of apoptosis in human MKN-45 cells assessed as early apoptic cells 10 nM incubated for 48 hrs by FITC-annexin V/propidium iodide staining based flow cytometry (reference value: 2.79%); assay type: functional
MKN-45 [20] = assay: Induction of apoptosis in human MKN-45 cells assessed as early apoptic cells 20 nM incubated for 48 hrs by FITC-annexin V/propidium iodide staining based flow cytometry (reference value: 2.79%); assay type: functional
MKN-45 [21] = assay: Induction of apoptosis in human MKN-45 cells assessed as late apoptic cells 20 nM incubated for 48 hrs by FITC-annexin V/propidium iodide staining based flow cytometry (reference value: 17.9%); assay type: functional
Cytochrome P450 2C9 = Cytochrome P450 2C9 (Homo sapiens, UniProt P11712); assay: Inhibition of CYP2C9 in human liver microsome; assay type: ADME, microsomes
[22] = AUC (0 to t) in ICR mouse plasma at 10 mg/kg, po measured up to 24 hrs by LC-MS/MS analysis; assay type: ADME, organism-based; design: time < 24 hrs, dose 10 mg/kg, route po
[23] = AUC (0 to infinity) in ICR mouse plasma at 10 mg/kg, po measured up to 24 hrs by LC-MS/MS analysis; assay type: ADME, organism-based; design: dose 10 mg/kg, time < 24 hrs, route po
[24] = Volume of distribution at steady state in ICR mouse plasma at 1 mg/kg, iv measured up to 24 hrs by LC-MS/MS analysis; assay type: ADME, organism-based; conditions: read-out: Vdss
MKN-45 [25] = assay: Potency index, ratio of IC50 for BBI608 to IC50 for test compound for antiproliferative activity against human MKN-45 cells assessed as reduction in cell viability incubated for 72 hrs by MTS assay; assay type: functional
MKN-45 [26] = assay: In vivo inhibition of STAT3 phosphorylation at Tyr705 residue in human MKN-45 cells xenografted in BALB/c nude mouse at 25 to 50 mg/kg, po qd administered for 5 weeks by western blot analysis; assay type: functional, organism-based; conditions: dose 25-50 mg/kg
[27] = Toxicity in BALB/c nude mouse xenografted with human MKN-45 cells assessed as kidney damage at 25 to 50 mg/kg, po qd administered for 5 weeks by H and E staining based analysis; assay type: organism-based; conditions: in vivo, 840 h, dose 25-50 mg/kg
[28] = Toxicity in BALB/c nude mouse assessed as body weight loss at 25 to 50 mg/kg, po qd administered for 5 weeks; assay type: organism-based; conditions: in vivo, 840 h, dose 25-50 mg/kg
[29] = Toxicity in […] mouse assessed as body weight loss at 25 to 50 mg/kg, po qd administered for 5 weeks; assay type: organism-based; conditions: in vivo, 840 h, dose 25-50 mg/kg
[30] = Toxicity in […] mouse xenografted with human MKN-45 cells assessed as spleen damage at 25 to 50 mg/kg, po qd administered for 5 weeks by H and E staining based analysis; assay type: organism-based; conditions: in vivo, 840 h, dose 25-50 mg/kg

T1 sequence (P40763 whole entry): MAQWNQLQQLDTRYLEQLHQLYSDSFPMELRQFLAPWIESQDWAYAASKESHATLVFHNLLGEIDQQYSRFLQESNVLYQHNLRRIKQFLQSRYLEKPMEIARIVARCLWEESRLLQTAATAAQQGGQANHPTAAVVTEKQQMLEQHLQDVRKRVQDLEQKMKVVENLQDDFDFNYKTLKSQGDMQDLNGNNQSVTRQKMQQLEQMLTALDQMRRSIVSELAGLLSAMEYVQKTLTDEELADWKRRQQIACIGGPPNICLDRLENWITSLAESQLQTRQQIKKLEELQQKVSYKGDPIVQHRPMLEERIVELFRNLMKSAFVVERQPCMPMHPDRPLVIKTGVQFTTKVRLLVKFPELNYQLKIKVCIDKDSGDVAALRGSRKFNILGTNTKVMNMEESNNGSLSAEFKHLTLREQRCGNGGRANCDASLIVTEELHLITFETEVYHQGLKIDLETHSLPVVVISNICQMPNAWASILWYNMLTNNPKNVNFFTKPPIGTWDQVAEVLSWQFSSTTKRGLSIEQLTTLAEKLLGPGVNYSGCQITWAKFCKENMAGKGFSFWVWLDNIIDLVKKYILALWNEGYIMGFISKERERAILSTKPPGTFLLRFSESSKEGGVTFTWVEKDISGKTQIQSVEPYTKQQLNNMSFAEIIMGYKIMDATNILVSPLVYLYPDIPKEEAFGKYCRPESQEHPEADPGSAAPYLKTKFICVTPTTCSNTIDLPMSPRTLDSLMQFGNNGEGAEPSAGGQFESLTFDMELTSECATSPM
Chain of Cytochrome P450 2C9 (P11712 whole entry): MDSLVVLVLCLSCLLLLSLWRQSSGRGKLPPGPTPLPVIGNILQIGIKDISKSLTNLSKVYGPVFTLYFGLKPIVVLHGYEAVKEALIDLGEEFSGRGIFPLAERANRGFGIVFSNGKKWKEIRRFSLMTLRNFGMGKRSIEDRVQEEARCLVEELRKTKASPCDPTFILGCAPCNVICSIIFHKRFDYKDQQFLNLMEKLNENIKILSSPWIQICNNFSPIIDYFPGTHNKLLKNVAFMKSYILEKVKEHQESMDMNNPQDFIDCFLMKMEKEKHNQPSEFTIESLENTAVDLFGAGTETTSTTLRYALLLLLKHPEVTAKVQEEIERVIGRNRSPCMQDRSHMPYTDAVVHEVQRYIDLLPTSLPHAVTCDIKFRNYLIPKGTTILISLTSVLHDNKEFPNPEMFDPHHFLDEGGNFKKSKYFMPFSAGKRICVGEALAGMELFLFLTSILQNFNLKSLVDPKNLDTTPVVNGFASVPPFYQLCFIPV
Chain of Proto-oncogene tyrosine-protein kinase Src (P12931 2-536 limits assumed): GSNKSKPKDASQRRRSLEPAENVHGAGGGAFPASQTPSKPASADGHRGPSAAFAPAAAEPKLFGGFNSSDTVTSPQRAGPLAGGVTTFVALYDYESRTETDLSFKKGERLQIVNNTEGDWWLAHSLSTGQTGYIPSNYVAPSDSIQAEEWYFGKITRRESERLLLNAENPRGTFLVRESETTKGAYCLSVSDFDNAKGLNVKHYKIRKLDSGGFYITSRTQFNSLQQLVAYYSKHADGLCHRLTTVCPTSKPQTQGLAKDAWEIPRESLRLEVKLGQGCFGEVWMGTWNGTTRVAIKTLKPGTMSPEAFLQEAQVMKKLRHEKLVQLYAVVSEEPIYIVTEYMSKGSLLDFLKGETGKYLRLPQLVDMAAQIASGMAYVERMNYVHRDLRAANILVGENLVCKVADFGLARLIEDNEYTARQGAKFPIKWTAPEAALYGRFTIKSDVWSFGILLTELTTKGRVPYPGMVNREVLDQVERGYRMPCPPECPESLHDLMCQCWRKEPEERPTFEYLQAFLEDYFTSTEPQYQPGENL
Chain of Epidermal growth factor receptor (P00533 whole entry): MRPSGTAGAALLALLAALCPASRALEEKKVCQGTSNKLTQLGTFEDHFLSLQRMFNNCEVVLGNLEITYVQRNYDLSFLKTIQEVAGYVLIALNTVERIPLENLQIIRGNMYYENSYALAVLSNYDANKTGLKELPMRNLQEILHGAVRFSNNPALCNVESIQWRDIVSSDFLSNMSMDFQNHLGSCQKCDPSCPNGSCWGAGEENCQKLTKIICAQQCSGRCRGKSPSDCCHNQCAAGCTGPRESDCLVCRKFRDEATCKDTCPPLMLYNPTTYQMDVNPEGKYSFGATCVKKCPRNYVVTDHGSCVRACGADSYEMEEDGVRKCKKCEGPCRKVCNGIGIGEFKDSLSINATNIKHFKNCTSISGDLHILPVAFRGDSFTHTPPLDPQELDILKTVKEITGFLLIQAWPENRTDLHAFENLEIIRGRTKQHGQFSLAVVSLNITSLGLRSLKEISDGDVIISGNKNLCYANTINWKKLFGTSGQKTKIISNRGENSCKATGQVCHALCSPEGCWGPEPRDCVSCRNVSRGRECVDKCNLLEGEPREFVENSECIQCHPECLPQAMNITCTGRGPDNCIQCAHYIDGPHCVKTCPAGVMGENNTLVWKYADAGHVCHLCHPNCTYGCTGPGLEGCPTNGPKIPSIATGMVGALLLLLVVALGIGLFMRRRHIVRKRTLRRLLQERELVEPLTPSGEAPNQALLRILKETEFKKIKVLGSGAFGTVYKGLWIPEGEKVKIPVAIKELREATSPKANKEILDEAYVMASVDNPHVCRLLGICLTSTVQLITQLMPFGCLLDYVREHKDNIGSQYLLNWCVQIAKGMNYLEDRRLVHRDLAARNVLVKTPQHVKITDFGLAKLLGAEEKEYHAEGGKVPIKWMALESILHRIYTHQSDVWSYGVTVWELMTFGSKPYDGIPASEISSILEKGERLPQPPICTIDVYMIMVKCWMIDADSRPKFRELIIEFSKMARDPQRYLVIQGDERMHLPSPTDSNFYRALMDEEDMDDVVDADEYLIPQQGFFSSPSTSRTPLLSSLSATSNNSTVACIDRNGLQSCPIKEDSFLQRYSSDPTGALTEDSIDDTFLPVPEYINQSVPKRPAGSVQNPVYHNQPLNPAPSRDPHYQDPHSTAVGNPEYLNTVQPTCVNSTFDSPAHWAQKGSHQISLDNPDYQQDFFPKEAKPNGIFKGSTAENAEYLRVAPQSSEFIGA

IC50 (MKN-45 [2]): 0.0093 µM
inhibition [3]: 100%
inhibition [4]: Dde
inhibition [5]: Dde
inhibition [6]: Dde
inhibition [7]: Dde
Kd [8]: 0.0764 µM
IC50 [9]: > 10 µM
IC50 [10]: > 10 µM
IC50 [11]: > 10 µM
inhibition [12]: Dde
inhibition [13]: Dde
inhibition [14]: Dde
inhibition [15]: Active
Vd [17]: 5.76 L/kg
IC50 (Cytochrome P450 2C9): 22.9 µM
AUC(0-t) at 24 h [22]: 9400 ng·h/mL
AUC(0-inf) [23]: 15500 ng·h/mL
Vd [24]: 6.56 L/kg
SMILES: O=C(c1ccc(-c2noc(-c3ccc(C(F)(F)F)cc3)n2)cc1)N1CCN(Cc2ccc(OCC(F)(F)F)cc2)CC1
Activity [1]: Non-Toxic
inhibition (MKN-45 [16]): Dde
Activity (AGS): Dde
inhibition (MGC-803): Dde
Activity (MKN-45 [18]): 8.54%
Activity (MKN-45 [19]): 5.7%
Activity (MKN-45 [20]): 5.06%
Activity (MKN-45 [21]): 22%
Ratio IC50 (MKN-45 [25]): 30
inhibition (MKN-45 [26]): Active
Activity [27]: Non-Toxic
Activity [28]: Non-Toxic
Activity [29]: Non-Toxic
Activity [30]: Non-Toxic
